Assay results as given in patent publication US8501955B2, “Acetamide derivatives as glucokinase activators, their process and medicinal application” (Advinus Therapeutics Private Limited, priority 2007, dated 2013).

Assays:
[1] = Kamata et al (2004) Structure 12: 429-438; cited from earlier work

Row | melting point | Compound | hypoglycemia in animal efficacy models [1]
1 | 72 to 73 °C | O=C(O)Cc1csc(NC(=O)C(Oc2ccc(F)cc2)c2ccc(S(=O)(=O)C3CC3)cc2)n1 (centres unmarked) [Example B1, {2-[2-(4-Cyclopropanesulfonylphenyl)-2-(4-fluorophenoxy)acetylamino]thiazol-4-yl}acetic acid] | –
2 | – | Ro-28-1675 | cause hypoglycemia
